Test results from patent publication US20240041796A1, “ANTI-INFLAMMATORY COMPOSITION COMPRISING N-BENZYL-N-METHYLDECAN-1-AMINE OR A DERIVATIVE THEREOF AS AN ACTIVE INGREDIENT” (PUSAN NATIONAL UNIVERSITY INDUSTRY-UNIVERSITY COOPERATION …, priority 2022, published 2024).

Assays:
[1] = tested on: human THP-1 monocytic cell line; test: ELISA of inflammatory cytokines in supernatant of LPS-treated THP-1 cells; assay type: cell-based; conditions: LPS 1 μg/ml, FIG. 2C
Procedure: Each of BMDA (FMJ-G0) or DMMA (FMJ-G4) was added to a culture medium at concentrations of […], and 1 μM in a 6-well plate. The human THP-1 monocytic cell line (5×10^5 cells/well) was cultured therein for 3 hours. Each well was treated with lipopolysaccharide at a concentration of 1 μg/ml. After 1 hour, centrifugation was performed to obtain a supernatant which was used in an ELISA for inflammatory cytokine evaluation. Cell lysate was added to the collected THP-1 cells for immunoblotting.

Balb/C mice = test: DNCB-induced atopic dermatitis model, cosmetic cream applied to the skin; assay type: in vivo, mouse; conditions: for DNCB-induced atopic dermatitis (level of dermatitis): cosmetic cream (0.3% active; Lidomax ointment 0.15%) applied to the back for 2 weeks, 9C; for DNCB-induced atopic dermatitis (level of dermatitis) / hair regrowth on the skin: FIG. 9A; for size of the (inguinal) lymph node: cosmetic cream (Lidomax ointment 0.15%) applied for 2 weeks, FIG. 9B, 9D; for hair regrowth on the skin: cosmetic cream applied for 2 weeks; for thickness of the dermis: hematoxylin-eosin stained skin sections, FIG. 10A-B; for phosphorylation level of JNK in skin / phosphorylation level of NF-KB in skin / phosphorylation level of p38MAPK in skin: immunoblotting, FIG. 11D; for phosphorylation level of JNK in skin / phosphorylation level of NF-KB in skin / phosphorylation level of p38MAPK in skin / concentration of IgE in the blood: vs control group; for amount of COX2 transcriptome in skin / amount of IL-1β transcriptome in skin / amount of IL-6 transcriptome in skin / amount of TNF-α transcriptome in skin / amount of iNOS transcriptome in skin: qRT-PCR, vs DNCB control, FIG. 11A-C; for concentration of IgE in the blood: serum ELISA, 2 weeks of treatment, FIG. 10D; for invasion of mast cells into the dermis: toluidine-blue staining, FIG. 10C
Procedure: Wed added 0.3 g of olive wax to 2 mL of soybean oil (Sigma-Aldrich) in a glass tube (15 ml), and put the tube in a 75° C. water-bath, and performed a double boiling thereon to melt the olive wax for 30 minutes while vortexing the tube at 10 minute interval. Under the same conditions, 7.7 ml of purified water was put into a 75° C. water-bath and heated the same for 30 minutes. Next, 7.5 ml of purified water was poured into the tube containing the olive wax and the mixture was stirred well via vortexing. Then, […] (0.3%) of each of BMDA and derivatives thereof (FMJ-G0, FMJ-G4, FMJ-G1, FMJ-G2, FMJ-G3) as synthesized in Examples 1 and 3 were added to the mixture, followed by stirring. The reaction product was cooled in ice and prepared in the form of a cosmetic cream.
In order to induce atopic dermatitis using 5-week-old Balb/C mice, hair on the back of the mouse was removed therefrom, and after one day, a 0.5% solution in which DNCB (2,4-dinitrochlorobenzne) is mixed with acetone and olive oil (3:1) was prepared, and then was applied thereon for 3 consecutive days by 150 μL per each day. Thereafter, the solution of the same concentration was applied to the back area from which the hair was removed twice a week and this process continued for 2 weeks. Further, to alleviate atopic dermatitis induced in this way, the cosmetic cream containing each of BMDA (FMJ-G0) and the derivatives thereof (FMJ-G4, FMJ-G1, FMJ-G2, FMJ-G3) of the present disclosure as prepared above was applied to the back of rats with the induced atopic dermatitis for 2 weeks, and then, changes in skin inflammation were examined.
The experimental results of FIG. 10A and FIG. 10B was obtained as follows as in FIG. 9. The skin tissue was removed from the back of the mouse in the group, and was placed fixedly in 10% formaldehyde for 48 hours, and paraffin pieces were made, and the pieces were thinly sliced so as to have a thickness of 4 μm and was subjected to hematoxylin-esoin staining. Then, whether the damaged skin tissue was recovered by each of BMDA (FMJ-G0) and DMMA (FMJ-G4) was examined using an optical microscope equipped with a Leica application (Leica Microsystems, Switzerland).
To this end, the atopic dermatitis is induced in FIG. 9, and on 2 weeks since the treatment with BMDA (FMJ-G0) and DMMA (FMJ-G4), blood (500 ul) is collected from the hepatic veins of the rats of the above groups, and left at room temperature for 30 minutes. Then, serum was separated and prepared via centrifugation, and then, the IgE concentration related to the allergic reaction was measured through ELISA using the serum thus prepared.
Anti-mouse IgE (Pharmingen, CA, USA) was diluted with PBS (pH 7.4) on a 96-well plate, 100 μL thereof was coated on each 96-well plate, and then left at 4° C. for 12 hours. The plate was washed with PBS containing 0.05% tween. Blocking was performed thereon for 1 hour with PBS containing 1% BSA, 5% sucrose, and 0.05% NaN3. Washing was performed thereon several times using washing buffer. Recombinant IgE and serum were added thereto, and reaction occurred at 37° C. for 2 hours, and each well was washed again, and biotinylated IgE (Pharmingen, CA, USA) was added thereto. Reaction occurred for 2 hours. After washing the well, avidin peroxidase was added thereto and reaction occurred at 37° C. for 30 minutes. Then, the well was washed and then, ABTS solution as a substrate was added thereto. Absorbance was measured at 405 nm using ELISA reader (Epoch2, Biotek, VT, USA).
FIG. 11 show data obtained as follows. The atopic dermatitis was induced as described in FIG. 9, and on 2 weeks since the treatment with BMDA or DMMA (FMJ-G0/G4), a portion of the skin tissue of the rats in the groups were put in Trisol solution and the tissue was crushed in a sonicator. […]

SMILES | production of IL-1β [1] | production of TNF-α [1] | DNCB-induced atopic dermatitis (level of dermatitis) (Balb/C mice) | size of the (inguinal) lymph node (Balb/C mice) | hair regrowth on the skin (Balb/C mice) | thickness of the dermis (Balb/C mice) | phosphorylation level of JNK in skin (Balb/C mice) | phosphorylation level of NF-KB in skin (Balb/C mice) | phosphorylation level of p38MAPK in skin (Balb/C mice) | amount of COX2 transcriptome in skin (Balb/C mice) | amount of IL-1β transcriptome in skin (Balb/C mice) | amount of IL-6 transcriptome in skin (Balb/C mice) | amount of TNF-α transcriptome in skin (Balb/C mice) | amount of iNOS transcriptome in skin (Balb/C mice) | concentration of IgE in the blood (Balb/C mice) | invasion of mast cells into the dermis (Balb/C mice)
CCCCCCCCCCN(C)Cc1ccc(OC)cc1 [DMMA, Decyl-(4-methoxy-benzyl)-methyl-amine] | inhibited | inhibited | significantly alleviated | the same as that of the spleen | observed | significantly reduced | significantly lowered | significantly lowered | significantly lowered | markedly lowered | markedly lowered | markedly lowered | markedly lowered | markedly lowered | significantly lower | prevents
CCCCCCCCCCN(C)Cc1ccccc1 [BMDA, N-benzyl-N-methyldecan-1-amine] | inhibited | inhibited | significantly alleviated | the same as that of the spleen | observed | significantly reduced | significantly lowered | significantly lowered | significantly lowered | markedly lowered | markedly lowered | markedly lowered | markedly lowered | markedly lowered | significantly lower | prevents
